Source: ChEMBL document CHEMBL6121013, “Novel antimalarial 3-substituted quinolones isosteres with improved pharmacokinetic properties” (Eur J Med Chem, 2025)
Values after ≈ are worked out from the molar mass of the structure shown.

Key:
[1] = Lipophilicity, logD of the compound at pH 7.4 by shake flask method; format: physicochemical; details: buffer
[2] = Solubility of the compound at pH 7.4; format: physicochemical; details: buffer
Plasmodium falciparum = experiment: Antimalarial activity against chloroquine-resistant Plasmodium falciparum W2 assessed as reduction in malarial growth incubated for 72 hrs by Spectrophotometric analysis; format: functional, organism-based; details: W2, 72 h
[3] = Metabolic stability in human liver microsomes assessed as intrinsic clearance incubated for 0.5 to 30 mins by LC-MS/MS analysis; format: ADME, Microsome; details: time 0.5-30 min, read-out: CLH
[4] = Plasma protein binding in human assessed as free fraction incubated for 6 hrs by LC-MS/MS analysis; format: ADME, cell-free
[5] = Metabolic stability in rat hepatocytes assessed as intrinsic clearance measured at 10^6 cells incubated for 5 to 120 mins by LC-MS/MS analysis; format: ADME, cell-based, Hepatocyte; details: time 5-120 min, read-out: CLH
[6] = Clearance in mouse administered intravenously; format: ADME; details: in vivo, route iv
[7] = Half life in male CD1 mouse at 2 mg/kg, iv by LC-MS analysis; format: ADME, organism-based; details: in vivo
[8] = Clearance in male CD1 mouse at 2 mg/kg, iv by LC-MS analysis; format: ADME, organism-based; details: in vivo
[9] = Cmax in male CD1 mouse at 50 mg/kg, po by LC-MS analysis; format: ADME, organism-based; details: in vivo
[10] = AUC in male CD1 mouse at 50 mg/kg, po by LC-MS analysis; format: ADME, organism-based; details: in vivo
[11] = Oral bioavailability in male CD1 mouse at 50 mg/kg by LC-MS analysis; format: ADME, organism-based; details: in vivo

Cc1[nH]c2ccccc2c(=O)c1-c1ccc(Oc2ccc(OC(F)(F)F)cc2)cc1
logD [1]: 4.9
solubility [2]: 3 µM (≈ 1.23 µg/mL)
IC50 (Plasmodium falciparum): 92 nM
microsomal CLint [3]: < 3 µL/min/mg
fraction unbound at 6 h [4]: 0.0009
hepatocyte CLint [5]: 6.17 µL/min/1e6 cells

COc1cc2[nH]c(C)c(-c3ccc(Oc4ccc(OC(F)(F)F)cc4)cc3)c(=O)c2cc1Cl
clearance [6]: 0.7 mL/min/kg

Cc1[nH]c2c(c(=O)c1-c1ccc(Oc3ccc(OC(F)(F)F)cc3)cc1)CCCC2
logD [1]: 4.5
solubility [2]: 0.2 µM (≈ 0.0831 µg/mL)
IC50 (Plasmodium falciparum): 157 nM
microsomal CLint [3]: < 3 µL/min/mg
fraction unbound at 6 h [4]: 0.0013
hepatocyte CLint [5]: 9.05 µL/min/1e6 cells

Cc1[nH]c2c(c(=O)c1-c1ccc(Cl)cc1)CCCCC2
IC50 (Plasmodium falciparum): 3800 nM

Cc1[nH]c2c(c(=O)c1-c1ccc(F)cc1)CCCCC2
IC50 (Plasmodium falciparum): 4970 nM

Cc1[nH]c2c(c(=O)c1-c1ccc(F)cc1)CCOC2
IC50 (Plasmodium falciparum): 8410 nM

Cc1[nH]c2c(c(=O)c1-c1ccc(Oc3ccc(OC(F)(F)F)cc3)cc1)CCCCC2
IC50 (Plasmodium falciparum): 1520 nM

Cc1[nH]c2c(c(=O)c1-c1ccc(Cl)cc1)CC(F)(F)CC2
logD [1]: 2.7
solubility [2]: 20 µM (≈ 6.19 µg/mL)
half-life [7]: 6.39 h
clearance [8]: 0.47 mL/min/kg
Cmax [9]: 28900 ng/mL
IC50 (Plasmodium falciparum): 235 nM
microsomal CLint [3]: < 3 µL/min/mg
AUC [10]: 405 µg·h/mL
fraction unbound at 6 h [4]: 0.12
bioavailability [11]: 23.4%
hepatocyte CLint [5]: < 1 µL/min/1e6 cells

Cc1[nH]c2c(c(=O)c1-c1ccc(-c3ccc(OC(F)(F)F)cc3)nc1)COCC2
IC50 (Plasmodium falciparum): > 10000 nM

Cc1[nH]c2c(c(=O)c1-c1ccc(F)cc1)CCCC2
IC50 (Plasmodium falciparum): 4800 nM

Cc1[nH]c2c(c(=O)c1-c1ccc(-c3ccc(OC(F)(F)F)cc3)nc1)CCCC2
IC50 (Plasmodium falciparum): 1150 nM

Cc1[nH]c2c(c(=O)c1-c1ccc(Cl)cc1)CCCC2
IC50 (Plasmodium falciparum): 956 nM

Cc1[nH]c2c(c(=O)c1-c1ccc(Cl)cc1)COCC2
IC50 (Plasmodium falciparum): > 10000 nM

Cc1[nH]c2c(c(=O)c1-c1ccc(F)cc1)COCC2
IC50 (Plasmodium falciparum): > 10000 nM

Cc1[nH]c2c(c(=O)c1-c1ccc(Oc3ccc(OC(F)(F)F)cc3)cc1)CC(F)(F)CC2
logD [1]: 3.9
solubility [2]: 2 µM (≈ 0.903 µg/mL)
IC50 (Plasmodium falciparum): 285 nM
microsomal CLint [3]: < 3 µL/min/mg
fraction unbound at 6 h [4]: 0.0029
hepatocyte CLint [5]: < 1 µL/min/1e6 cells

Cc1[nH]c2c(c(=O)c1-c1ccc(Oc3ccc(OC(F)(F)F)cc3)cc1)COCC2
logD [1]: 3.8
solubility [2]: 140 µM (≈ 58.4 µg/mL)
IC50 (Plasmodium falciparum): 528 nM
microsomal CLint [3]: < 3 µL/min/mg
fraction unbound at 6 h [4]: 0.0065
hepatocyte CLint [5]: 2.63 µL/min/1e6 cells

Cc1[nH]c2c(c(=O)c1-c1ccc(Oc3ccc(OC(F)(F)F)cc3)cc1)CCOC2
IC50 (Plasmodium falciparum): 446 nM

Cc1[nH]c2c(c(=O)c1-c1ccc(F)cc1)CC(F)(F)CC2
logD [1]: 1.7
solubility [2]: 68 µM (≈ 19.9 µg/mL)
IC50 (Plasmodium falciparum): 597 nM
microsomal CLint [3]: < 3 µL/min/mg
fraction unbound at 6 h [4]: 0.3
hepatocyte CLint [5]: < 1 µL/min/1e6 cells

Cc1[nH]c2c(c(=O)c1-c1ccc(OC(F)(F)F)cc1)CCCC2
logD [1]: 3.3
solubility [2]: 14 µM (≈ 4.53 µg/mL)
IC50 (Plasmodium falciparum): 354 nM
microsomal CLint [3]: 25.6 µL/min/mg
fraction unbound at 6 h [4]: 0.15
hepatocyte CLint [5]: 1.14 µL/min/1e6 cells
